Entries after “also recorded” stand apart in the source; their conditions may differ.
Assays:
[1] = tested on: rabbit corpus cavernosum; test: Effect on electrical field stimulation (EFS)-induced relaxation; assay type: cell-based
Method: Male New Zealand White rabbits (2.0-3.0 Kg) were killed by cervical dislocation. The abdominal cavity was opened and the penis excised, starting at the base of the organ at the pelvic bones. The corpus cavernosum was carefully dissected free from the surrounding tunica albuginea—2 tissue strips, approximately 10 mm×3 mm×2 mm in size, were obtained from each penis. The dissection was carried out in Krebs Ringer Solution. Tissues were used on the day of harvest.
The strips of corpus cavernosum and were mounted with surgical suture in 5 ml Wesley & Co. organ baths, and immersed in Kreb's solution maintained at 37° C. and aerated with 5% CO2/95% O2 to attain pH 7.4. The suture was connected to a force displacement transducer (Maywood Instruments Ltd.) and changes in isometric tension were recorded on the DART in vitro computer package. The tissues were put under an initial resting tension of 1.5 g and allowed to equilibrate for 1 hour. During equilibration, the tissues were rinsed at 5 ml/min. The approximate tissue tension after equilibration was 1 g. The tissues were then sensitised to contraction with phenylephrine (PE) (10 μM) and KCl (120 mM), and relaxation with sodium nitroprusside (SNP) (100 μM).
Tissues were bathed in “normal” Kreb's containing 5 μM guanethidine and 1 μM atropine, to block NA release and receptors respectively. EFS was delivered by a MS3 stimulator connected to 2 platinum electrodes which were placed at the top and bottom of the organ chambers. EFS parameters are as follows: Voltage=45-65V, Frequency=2-32 Hz, Pulse Width=0.2 ms, Train Duration=10 s. […] An EFS curve involved stimulating PE-contracted tissues at 2 Hz, 4 Hz, 8 Hz, 16 Hz and 32 Hz, and the degree of relaxation was measured by taking the minimum reading from the maximum reading obtained over a 30 s period. […]
For each dose response curve, the relaxation responses are expressed as a percentage of the PE-induced contraction. […] For EFS response curves, the degree of relaxation was expressed as a percentage of the PE-induced contraction. […]

[2] = Blood pressure in vivo
[3] = tested on: rabbit corpus cavernosum; test: Mechanism of EBIO-induced relaxation (L-NOARG incubation, endothelium removal); assay type: cell-based; settings: PE (10 μM) contracted
[4] = tested on: rabbit corpus cavernosum; test: Direct relaxant effect of EBIO on contracted corpus cavernosum strips in organ baths; assay type: cell-based
[5] = tested on: rabbit aorta; test: Selectivity of EBIO for corpus cavernosum over cardiovascular tissue (isolated aorta); assay type: cell-based; settings: in vitro
Method: PE (1 μM) or 80 mM K^+ contracted rabbit aorta sections were subjected to half-log unit cumulative additions of EBIO (10 nM-1 mM) with approximately 10 minute intervals between each addition.
For each dose response curve, the relaxation responses are expressed as a percentage of the PE-induced contraction. The mean values±s.e. mean are then plotted against log[drug] concentration. Sigmoidal curves were fitted to the data using Origin curve fitting computer package. For the purpose of curve fitting, the minimum relaxation response is constrained to 0% and the maximum relaxation response is allowed to free fit. For EFS response curves, the degree of relaxation was expressed as a percentage of the PE-induced contraction. These values were then plotted against the frequency of stimulation.

[6] = tested on: rabbit corpus cavernosum; test: Effect of EBIO on cGMP-mediated (SNP-induced) relaxation; assay type: cell-based; settings: EBIO 50 μM; SNP dose response

Molecule	effect of ChTX on EBIO-induced potentiation of EFS-induced relaxation ([1]; ChTX 100 nM with EBIO 50 μM)	attenuation of endogenous NO-mediated (EFS-induced) relaxation ([1]; ChTX 100 nM, across the frequency range)	effect on blood pressure in vivo [2]	EBIO-induced relaxation in the presence of L-NOARG (NOS inhibitor) ([3]; L-NOARG)	EBIO-induced relaxation in endothelium deprived corpus cavernosum ([3]; endothelium removed)	IC20 ([4]; Oryctolagus cuniculus, relaxation of rabbit corpus cavernosum) [µM]	relaxation of PE-contracted rabbit corpus cavernosum ([4]; PE (10 μM) contracted, EBIO 10 nM-1 mM cumulative, in vitro)	concentrations at which basal tone is suppressed ([4]; rabbit corpus cavernosum basal tone) [µM]	concentrations at which a relaxant effect on rabbit aorta occurs [5] [µM]	relaxant effect on rabbit aorta ([5]; PE (1 μM) or 80 mM K+ contracted, concentrations up to 100 μM)	effect on SNP-induced relaxation of PE-contracted corpus cavernosum [6]	effect on EFS-induced relaxation of PE-contracted corpus cavernosum ([1]; EBIO 50 μM, 2-32 Hz)
charybdotoxin [ChTX]	caused a reduction; also recorded: sensitive	up to 30%										
CCn1c(=O)[nH]c2ccccc21 [EBIO, 1-ethyl-2-benzimidazolinone]			no effect	still observed	still observed; also recorded: not affected	~50	concentration-dependent relaxation; also recorded: concentration dependent relaxation	≥ 10	≥ 100	no relaxant effect	potentiates; also recorded: enhanced	greatly potentiates; also recorded: enhanced

Reference: US20040185094A1, “Pharmaceutical” (priority 2000, published 2004)
